Results: US20220324835A1 (Nurix Therapeutics, Inc., priority 2018, published 2022)

Key:
[1] = system: T-cell; test: CD25 cell surface staining on T-cells stimulated with anti-CD3 antibody alone (Biological Example 2); type: cell-based, human; conditions: Homo sapiens, T-cell; 1 μM Cbl-b inhibitor; fold change over baseline (anti-CD3/anti-CD28 stimulated T-cells without inhibitor); read-out: CD25 staining Anti-CD3 stimulation
Excerpt: (§1) Methods for experimentally determining increased T-cell activation, increased T-cell proliferation, decreased T-cell exhaustion, and/or decreased T-cell tolerance are well known in the art.
(§2) Modulation of activity of an immune cell, such as a T-cell, a B cell or a NK cell can be measured by determining a baseline value for a parameter of interest (e.g., cytokine secretion). […] A reference value then is obtained for T-cell activation after contacting or administering said Cbl-b inhibitor. The reference value is compared to the baseline value in order to determine the amount of T-cell activation due to contact or administration of the Cbl-b inhibitor or composition thereof. […] Immune cell activation can be assessed by measuring biological markers of activation such as increased cytokine secretion, increased cell surface expression of activation markers (e.g., cell surface markers), or increased phosphorylation of proteins in a downstream signaling pathway. The fold over baseline value that indicates immune cell activation can be determined for the parameter being tested and the conditions under which the immune cell were treated. For example, for measuring T-cell activation, a baseline value can be obtained from T-cells stimulated with anti-CD3 antibody in combination with anti-CD28 antibody, wherein the cells are not incubated with a Cbl-b inhibitor. […] A positive response for immune cell activation can then be determined by the obtained reference value.
(§3) In some embodiments, a baseline value can be obtained from T-cells stimulated with anti-CD3 antibody alone, wherein the cells are not incubated with a Cbl-b inhibitor. In some embodiments, a positive response for T-cell activation as measured by cytokine secretion (e.g., IL-2 secretion) by T-cells stimulated with anti-CD3 antibody alone in the presence of a Cbl-b inhibitor is at least 0.1-fold over the baseline value for cytokine secretion (e.g., IL-2 secretion) obtained from T-cells stimulated with anti-CD3 antibody alone in the absence of a Cbl-b inhibitor. In some embodiments, a positive response for T-cell activation as measured by surface marker expression (e.g., CD25 surface marker staining) by T-cells stimulated with anti-CD3 antibody alone in the presence of a Cbl-b inhibitor is at least 0.6-fold over the baseline value for surface marker expression (e.g., CD25 surface marker staining) obtained from T-cells stimulated with anti-CD3 antibody alone in the absence of a Cbl-b inhibitor.

[2] = system: T-cell; test: CD25 cell surface staining on T-cells co-stimulated with anti-CD3 and anti-CD28 antibody (Biological Example 2); type: cell-based, human; conditions: Homo sapiens, T-cell, fold change over baseline (anti-CD3/anti-CD28 stimulated T-cells without inhibitor), read-out: CD25 staining Anti-CD3/Anti-CD28 stimulation; for fold induction at 0.3 µM: 0.3 μM Cbl-b inhibitor; for fold induction at 1 µM: 1 μM Cbl-b inhibitor
Excerpt: as §1
as §2, with “value. […]” for “value.”

[3] = system: T-cell; test: IL-2 secretion from T-cells co-stimulated with anti-CD3 and anti-CD28 antibody (Biological Example 2); type: cell-based, human; conditions: Homo sapiens, T-cell, fold change over baseline (anti-CD3/anti-CD28 stimulated T-cells without inhibitor), read-out: IL-2 secretion Anti-CD3/Anti-CD28 stimulation; for fold induction at 0.3 µM: 0.3 μM Cbl-b inhibitor; for fold induction at 1 µM: 1 μM Cbl-b inhibitor
Excerpt: as §1
as §2, with “value. […]” for “value.”

[4] = target: T1, Cbl-b (Homo sapiens, UniProt Q13191); test: Cbl-b activity assay (Cbl-b inhibition assay), TR-FRET of Cbl-b interaction with UbcH5B-Ub; type: biochemical; conditions: assay buffer with 100 mM NaCl, 60 nM Src kinase; read-out: Cbl-b activity IC50
Summary of the method: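 UbcH5B (C85K) conjugated to N-terminally Bodipy-Fluorescein-labeled ubiquitin served as the fluorescent partner. After compound preincubation, Src kinase (60 nM) with 1 mM ATP and 5 mM MgCl2 (final) was added for 1.5 h, followed by a further 1 h incubation. Some values were obtained with 50 mM NaCl and 30 nM Src.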

[5] = target: T1, Cbl-b; test: Cbl-b inhibition assay (Cbl-b activity assay, FRET, Biological Example 1; 100 mM NaCl, 60 nM Src kinase); type: biochemical; conditions: upper bound stated in text lists; read-out: IC50 values in the Cbl-b inhibition assay of Biological Example 1
Summary of the method: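 Inhibition is read as loss of FRET signal. The signal arises when Src-phosphorylated, N-terminal biotinylated Avi-Cbl-b (captured by streptavidin-terbium) binds UbcH5B carrying covalently linked Bodipy-Fluorescein-tagged ubiquitin.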

[6] = system: T-cell; test: IL-2 secretion from T-cells stimulated with anti-CD3 antibody alone (Biological Example 2); type: cell-based, human; conditions: Homo sapiens, T-cell; 1 μM Cbl-b inhibitor; fold change over baseline (anti-CD3/anti-CD28 stimulated T-cells without inhibitor); read-out: IL-2 secretion Anti-CD3 stimulation
Excerpt: as §1, §2, §3

T1 sequence (Q13191 36-427): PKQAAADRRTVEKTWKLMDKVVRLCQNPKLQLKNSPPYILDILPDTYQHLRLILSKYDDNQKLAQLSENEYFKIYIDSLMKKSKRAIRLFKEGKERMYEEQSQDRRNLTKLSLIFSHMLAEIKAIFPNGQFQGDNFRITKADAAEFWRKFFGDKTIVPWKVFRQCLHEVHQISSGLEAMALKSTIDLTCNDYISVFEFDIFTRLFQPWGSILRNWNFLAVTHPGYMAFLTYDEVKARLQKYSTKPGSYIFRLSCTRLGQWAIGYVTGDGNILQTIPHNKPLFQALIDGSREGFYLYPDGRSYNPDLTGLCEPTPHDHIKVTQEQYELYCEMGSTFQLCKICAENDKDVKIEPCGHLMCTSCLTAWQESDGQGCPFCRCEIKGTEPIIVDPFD

SMILES	fold induction at 1 µM [1]	fold induction at 0.3 µM [2]	fold induction at 1 µM [2]	fold induction at 0.3 µM [3]	fold induction at 1 µM [3]	IC50 [4] [µM]	IC50 [5] [µM]	fold induction at 1 µM [6]
Cn1cnnc1CC1(c2cccc(N3Cc4c(cc(C5CN6CCC5CC6)cc4C(F)(F)F)C3=O)c2)COC1 (stereo not shown) [Example 560, 2-(3-(3-((4-methyl-4H-1,2,4-triazol-3-yl)methyl)oxetan-3-yl)phenyl)-6-(quinuclidin-3-yl)-4-(trifluoromethyl)isoindolin-1-one]	0.601 to 0.8	1.01 to 1.3	1.01 to 1.3	2.51 to 5	5 to 7.5	< 0.1	≤ 0.1	< 0.05
Cn1cnnc1CC1(c2cccc(N3Cc4c(cc(C5CCC5)cc4C(F)(F)F)C3=O)c2)COC1 [Example 611, 6-cyclobutyl-2-(3-(3-((4-methyl-4H-1,2,4-triazol-3-yl)methyl)oxetan-3-yl)phenyl)-4-(trifluoromethyl)isoindolin-1-one]	0.801 to 1	1.01 to 1.3	1.31 to 1.5	2.51 to 5	2.51 to 5	< 0.1	≤ 0.1	0.101 to 0.15
Cn1cnnc1CC1(c2cccc(N3Cc4c(ccc(F)c4C4CC4)C3=O)c2)COC1 [Example 577, 4-Cyclopropyl-5-fluoro-2-(3-(3-((4-methyl-4H-1,2,4-triazol-3-yl)methyl)oxetan-3-yl)phenyl)isoindolin-1-one]	0.601 to 0.8	1.01 to 1.3	1.01 to 1.3	1.01 to 2.5	1.01 to 2.5	0.1 to 0.3	≤ 0.3	0.051 to 0.1
Cc1cc(C(=O)Nc2cccc(C3(C(F)(F)c4nncn4C)COC3)c2)nc(C2CC2)n1 [Example 676, 2-cyclopropyl-N-(3-(3-(difluoro(4-methyl-4H-1,2,4-triazol-3-yl)methyl)oxetan-3-yl)phenyl)-6-methylpyrimidine-4-carboxamide]	0.801 to 1	1.01 to 1.3	1.31 to 1.5	2.51 to 5	5 to 7.5	< 0.1	≤ 0.1	0.101 to 0.15
Cn1cnnc1CC1(c2cccc(N3Cc4c(cc(N5CCC(C(F)F)C5)cc4C(F)(F)F)C3=O)c2)COC1 (stereo not shown) [Example 601, 6-(3-(difluoromethyl)pyrrolidin-1-yl)-2-(3-(3-((4-methyl-4H-1,2,4-triazol-3-yl)methyl)oxetan-3-yl)phenyl)-4-(trifluoromethyl)isoindolin-1-one]	0.601 to 0.8	1.01 to 1.3	1.01 to 1.3	1.01 to 2.5	2.51 to 5	< 0.1	≤ 0.1	< 0.05
C[C@H](Cc1nncn1C)c1cc(N2Cc3c(cccc3C(F)(F)F)C2=O)nc(C2(C)CC2)c1 [Example 681, (R)-2-(4-(1-(4-methyl-4H-1,2,4-triazol-3-yl)propan-2-yl)-6-(l-methylcyclopropyl)pyridin-2-yl)-4-(trifluoromethyl)isoindolin-1-one]	< 0.6	1.01 to 1.3	1.01 to 1.3	1.01 to 2.5	1.01 to 2.5	0.301 to 1	≤ 1	0.051 to 0.1
Cn1cnnc1[C@H](F)C1(c2cccc(N3Cc4c(cc(CN5C6CCC5CC6)cc4C(F)(F)F)C3=O)c2)COC1 [Example 671b, (R)-6-((7-azabicyclo[2.2.1]heptan-7-yl)methyl)-2-(3-(3-(fluoro(4-methyl-4H-1,2,4-triazol-3-yl)methyl)oxetan-3-yl)phenyl)-4-(trifluoromethyl)isoindolin-1-one]	> 1	> 1.76	> 1.76	> 7.5	> 7.5	< 0.1	≤ 0.1	> 0.201
Cn1cnnc1CC1(c2cccc(N3Cc4c(cc(C5=CCOC5)cc4C(F)(F)F)C3=O)c2)COC1 [Example 612, 6-(2,5-dihydrofuran-3-yl)-2-(3-(3-((4-methyl-4H-1,2,4-triazol-3-yl)methyl)oxetan-3-yl)phenyl)-4-(trifluoromethyl)isoindolin-1-one]	0.801 to 1	1.01 to 1.3	1.31 to 1.5	2.51 to 5	2.51 to 5	< 0.1	≤ 0.1	0.101 to 0.15
Cn1cnnc1CC1(c2cccc(NC(=O)c3cc(CN4CC[C@H](F)C4)nc(C4CC4)n3)c2)COC1 [Example 574, (S)-2-Cyclopropyl-6-((3-fluoropyrrolidin-1-yl)methyl)-N-(3-(3-((4-methyl-4H-1,2,4-triazol-3-yl)methyl)oxetan-3-yl)phenyl)pyrimidine-4-carboxamide]	> 1	1.51 to 1.75	1.51 to 1.75	> 7.5	> 7.5	< 0.1	≤ 0.1	> 0.201
CCOc1cc(N2Cc3c(cc([C@H](C)N4CC[C@H](F)C4)cc3C(F)(F)F)C2=O)cc(C2(Cc3nncn3C)COC2)c1 [Example 691b, 2-(3-ethoxy-5-(3-((4-methyl-4H-1,2,4-triazol-3-yl)methyl)oxetan-3-yl)phenyl)-6-((S)-1-((S)-3-fluoropyrrolidin-1-yl)ethyl)-4-(trifluoromethyl)isoindolin-1-one]	> 1	1.31 to 1.5	1.51 to 1.75	2.51 to 5	> 7.5	< 0.1	≤ 0.1	0.151 to 0.2
Cn1cnnc1CC1(c2cccc(N3Cc4c(cc(CN5CCC6CC6C5)cc4C(F)(F)F)C3=O)c2)COC1 (stereo not shown) [Example 646, 6-((3-azabicyclo[4.1.0]heptan-3-yl)methyl)-2-(3-(3-((4-methyl-4H-1,2,4-triazol-3-yl)methyl)oxetan-3-yl)phenyl)-4-(trifluoromethyl)isoindolin-1-one]	> 1	1.31 to 1.5	1.31 to 1.5	> 7.5	> 7.5	< 0.1	≤ 0.1	> 0.201
